Results published in PMC9172550, “Novel derivatives of eugenol as potent anti-inflammatory agents via PPARγ agonism: rational design, synthesis, analysis, PPARγ protein binding assay and computational studies” (RSC Advances, 2022).

What was measured:
[1] = biological target: T1, PPARγ LBD protein (Homo sapiens, UniProt P37231); test: LanthaScreen TR-FRET competitive ligand displacement (PPARγ protein binding) assay; details: for IC50: TR-FRET PPARγ binding, tracer displacement
T1 construct: 1 nM 6xHis-PPAR LBD protein
T1 sequence (P37231 238-503 limits assumed): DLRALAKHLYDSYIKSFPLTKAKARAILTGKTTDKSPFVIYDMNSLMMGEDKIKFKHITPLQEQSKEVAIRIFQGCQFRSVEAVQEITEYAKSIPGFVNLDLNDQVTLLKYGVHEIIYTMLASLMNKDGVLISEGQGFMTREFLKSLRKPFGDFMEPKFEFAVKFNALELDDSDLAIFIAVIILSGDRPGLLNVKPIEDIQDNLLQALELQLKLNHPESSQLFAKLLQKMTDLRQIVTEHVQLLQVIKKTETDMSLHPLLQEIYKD
Procedure: Based on time-resolved fluorescence resonance energy transfer (TR-FRET), the nuclear receptor competitive binding assay was utilized to identify PPARγ ligands. […] The tracer is displaced from PPARγ-LBD by a chemical under test, resulting in a decrease in the FRET signal and a low TR-FRET ratio (Fig. 8).
We performed a time-resolved fluorescence resonance energy transfer (TR-FRET) assay using a black flat bottom 384-well plate and a buffer containing 20 mM potassium phosphate (pH 7.4), 0.5 mM EDTA, 50 mM KCl, and 0.01% Tween-20, 5 mM TCEP. For the TR-FRET coregulator interaction assay, each well contained 400 nM FITC-labeled TRAP220 or NCoR1 peptides, 1 nM LanthaScreen Elite Tb-anti-His Antibody, 4 nM 6xHis-PPARγ LBD protein and 400 nM peptide in TR-FRET buffer in 22.5 μL total volume per well. Each well ([…] per well) included 1 nM 6xHis-PPAR LBD protein, 1 nM LanthaScreen Elite Tb-anti-His Antibody, and 5 nM Fluormone Pan-PPAR Green tracer ligand in TR-FRET buffer for the ligand displacement experiment. Ligand stocks were made by serial dilution in DMSO, then added to wells in triplicate to a final DMSO concentration of 1%, then incubated at room temperature for 1 hour, and read using a BioTek Synergy Neo multimode plate reader. The Tb donor was stimulated at 340 nm, its fluorescence emission was measured at 490 nm, and the FITC emission of the acceptor was detected at 520 nm. The signal at 520 nm/490 nm was used to compute the TR-FRET ratio.[37,38]

[2] = biological target: egg albumin (Gallus gallus, UniProt P01012); test: Albumin denaturation assay (in vitro anti-inflammatory activity); set-up: species or system hen; details: means ± SD, n = 3, read-out: percentage inhibition of albumin denaturation
Procedure: In this assay egg albumin is used as protein. Protein denaturation is achieved by keeping the reaction mixture at 70 °C in a water bath for 10 minutes.
The reaction mixture containing 0.2 ml of egg albumin (from fresh hen's eggs), 2.8 ml of phosphate-buffered saline (pH 6.4), and were mixed with 2 ml of the synthesized compounds in varying concentrations. Then the samples were incubated at 37 °C for 20 min and then heated to 70 °C for 20 min. After cooling the samples, the turbidity was measured spectrophotometrically at 660 nm. […] The following formula was used to calculate the percentage inhibition of protein denaturation. [drawing 5]

Sequence of egg albumin (P01012 2-386): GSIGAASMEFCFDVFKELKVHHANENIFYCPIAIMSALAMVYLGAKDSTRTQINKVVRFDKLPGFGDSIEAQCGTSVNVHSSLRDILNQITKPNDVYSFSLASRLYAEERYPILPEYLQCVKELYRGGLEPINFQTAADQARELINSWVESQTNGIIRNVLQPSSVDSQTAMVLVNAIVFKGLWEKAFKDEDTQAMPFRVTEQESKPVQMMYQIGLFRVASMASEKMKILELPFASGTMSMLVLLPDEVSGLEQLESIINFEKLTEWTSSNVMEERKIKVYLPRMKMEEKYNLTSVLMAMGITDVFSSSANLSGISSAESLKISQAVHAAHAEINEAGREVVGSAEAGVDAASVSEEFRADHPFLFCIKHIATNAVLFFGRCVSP

Structure (SMILES) | IC50 [1] | Raw Data (RLU) ([1]; TR-FRET signal at 0.0000512 µM) | Raw Data - Background (RLU) ([1]; TR-FRET signal at 0.0000512 µM) | Raw Data (RLU) ([1]; TR-FRET signal at 0.000256 µM) | Raw Data - Background (RLU) ([1]; TR-FRET signal at 0.000256 µM) | Raw Data (RLU) ([1]; TR-FRET signal at 0.00128 µM) | Raw Data - Background (RLU) ([1]; TR-FRET signal at 0.00128 µM) | Raw Data (RLU) ([1]; TR-FRET signal at 0.0064 µM) | Raw Data - Background (RLU) ([1]; TR-FRET signal at 0.0064 µM) | Raw Data (RLU) ([1]; TR-FRET signal at 0.032 µM) | Raw Data - Background (RLU) ([1]; TR-FRET signal at 0.032 µM) | Raw Data (RLU) ([1]; TR-FRET signal at 0.16 µM) | Raw Data - Background (RLU) ([1]; TR-FRET signal at 0.16 µM) | inhibition at 6.25 µM [2] | inhibition at 12.5 µM [2] | inhibition at 25 µM [2] | inhibition at 50 µM [2] | inhibition at 150 µM [2] | inhibition at 200 µM [2] | inhibition at 400 µM [2] | further results
C=CCc1ccc(OCC(=O)Nc2ccc(C)cc2)c(OC)c1 [Compound 1A, 2-(4-Allyl-2-methoxyphenoxy)-N-p-tolylacetamide] | 13.5 µM | 2.07 RLU | 1.84 RLU | 2.10 RLU | 1.862 RLU | 2.02 RLU | 1.787 RLU | 1.92 RLU | 1.688 RLU | 2.00 RLU | 1.76 RLU | 1.95 RLU | 1.716 RLU | 2.42 ± 0.165% | 5.7 ± 3.19% | 8.72 ± 3.93% | 13.3 ± 7.51% | 17.2 ± 8.71% | 25.4 ± 2.87% | 32 ± 2.95% | Raw Data (RLU) ([1]; TR-FRET signal at 0.8 µM): 1.99 RLU; Raw Data - Background (RLU) ([1]; TR-FRET signal at 0.8 µM): 1.754 RLU; Raw Data (RLU) ([1]; TR-FRET signal at 4 µM): 1.57 RLU; Raw Data - Background (RLU) ([1]; TR-FRET signal at 4 µM): 1.332 RLU; Raw Data (RLU) ([1]; TR-FRET signal at 20 µM): 1.07 RLU; Raw Data - Background (RLU) ([1]; TR-FRET signal at 20 µM): 0.8399 RLU; Raw Data (RLU) ([1]; TR-FRET signal at 100 µM): 0.54 RLU; Raw Data - Background (RLU) ([1]; TR-FRET signal at 100 µM): 0.3006 RLU
C=CCc1ccc(OCC(=O)Nc2ccc(OC)cc2)c(OC)c1 [Compound 1B, 2-(4-Allyl-2-methoxyphenoxy)-N-(4-methoxyphenyl) acetamide] | 41.5 µM | 2.024 RLU | 1.789 RLU | 1.990 RLU | 1.755 RLU | 1.965 RLU | 1.73 RLU | 1.913 RLU | 1.678 RLU | 1.913 RLU | 1.678 RLU | 1.960 RLU | 1.724 RLU | 1.71 ± 0.344% | 4.57 ± 0.54% | 6.82 ± 1.37% | 8.59 ± 0.205% | 9.45 ± 0.681% | 16.4 ± 5.09% | 30.7 ± 4.44% | Raw Data (RLU) ([1]; TR-FRET signal at 0.8 µM): 2.002 RLU; Raw Data - Background (RLU) ([1]; TR-FRET signal at 0.8 µM): 1.767 RLU; Raw Data (RLU) ([1]; TR-FRET signal at 4 µM): 1.855 RLU; Raw Data - Background (RLU) ([1]; TR-FRET signal at 4 µM): 1.619 RLU; Raw Data (RLU) ([1]; TR-FRET signal at 20 µM): 1.280 RLU; Raw Data - Background (RLU) ([1]; TR-FRET signal at 20 µM): 1.045 RLU; Raw Data (RLU) ([1]; TR-FRET signal at 100 µM): 0.534 RLU; Raw Data - Background (RLU) ([1]; TR-FRET signal at 100 µM): 0.2989 RLU
C=CCc1ccc(OCC(=O)Nc2ccc(Cl)cc2)c(OC)c1 [Compound 1C, 2-(4-Allyl-2-methoxyphenoxy)-N-(4-chlorophenyl) acetamide] | 10.7 µM | 2.069 RLU | 1.834 RLU | 1.896 RLU | 1.660 RLU | 1.907 RLU | 1.672 RLU | 1.934 RLU | 1.699 RLU | 1.989 RLU | 1.754 RLU | 1.921 RLU | 1.686 RLU | 5.23 ± 4.12% | 9.14 ± 0.615% | 15.7 ± 1.59% | 22.6 ± 1.98% | 38.5 ± 1.1% | 48.1 ± 1.14% | 56.9 ± 1.8% | Raw Data (RLU) ([1]; TR-FRET signal at 0.8 µM): 1.922 RLU; Raw Data - Background (RLU) ([1]; TR-FRET signal at 0.8 µM): 1.687 RLU; Raw Data (RLU) ([1]; TR-FRET signal at 4 µM): 1.761 RLU; Raw Data - Background (RLU) ([1]; TR-FRET signal at 4 µM): 1.526 RLU; Raw Data (RLU) ([1]; TR-FRET signal at 20 µM): 1.058 RLU; Raw Data - Background (RLU) ([1]; TR-FRET signal at 20 µM): 0.823 RLU; Raw Data (RLU) ([1]; TR-FRET signal at 100 µM): 0.951 RLU; Raw Data - Background (RLU) ([1]; TR-FRET signal at 100 µM): 0.716 RLU
C=CCc1ccc(OCC(=O)Nc2cccc(C)c2)c(OC)c1 [Compound 1D, 2-(4-Allyl-2-methoxyphenoxy)-N-m-tolylacetamide] | 15 µM | 1.92 RLU | 1.69 RLU | 1.95 RLU | 1.72 RLU | 1.85 RLU | 1.61 RLU | 2.07 RLU | 1.83 RLU | 1.93 RLU | 1.70 RLU | 1.87 RLU | 1.64 RLU | 2.66 ± 1.12% | 7.88 ± 3.8% | 11.1 ± 3.65% | 15.9 ± 7.79% | 22.4 ± 5.43% | 29.6 ± 3.94% | 36.7 ± 4.77% | Raw Data (RLU) ([1]; TR-FRET signal at 0.8 µM): 1.91 RLU; Raw Data - Background (RLU) ([1]; TR-FRET signal at 0.8 µM): 1.68 RLU; Raw Data (RLU) ([1]; TR-FRET signal at 4 µM): 1.91 RLU; Raw Data - Background (RLU) ([1]; TR-FRET signal at 4 µM): 1.67 RLU; Raw Data (RLU) ([1]; TR-FRET signal at 20 µM): 1.91 RLU; Raw Data - Background (RLU) ([1]; TR-FRET signal at 20 µM): 1.67 RLU; Raw Data (RLU) ([1]; TR-FRET signal at 100 µM): 1.40 RLU; Raw Data - Background (RLU) ([1]; TR-FRET signal at 100 µM): 1.17 RLU
O=C(O)Cc1ccccc1Nc1c(Cl)cccc1Cl [Standard diclofenac, Diclofenac sodium, reference compound] | – | – | – | – | – | – | – | – | – | – | – | – | – | 10 ± 0.463% | 15.7 ± 0.429% | 27 ± 0.336% | 38.5 ± 0.468% | 48.3 ± 3.14% | 60.9 ± 0.223% | 66.29 ± 0.375% | –
